# Where two headings read alike, the source gives them in different places.
# Columns and labels:
# [1] = system: Trichosporon beigelii 1188; test: In vitro antifungal broth microdilution test; format: cell-based
# Experimental: Fluconazole (FLU) was used as the standard of a clinically used antimycotic drug. The procedure was performed with twofold dilution of the compounds in RPMI 1640 (Sevapharma a.s., Prague, Czech Republic) buffered to pH 7.0 with 0.165 mol of 3-morpholino-propane-1-sulfonic acid (MOPS, Sigma, Germany). The final concentrations of the compounds ranged from 500 to 0.975 μmol/L. Drug–free controls were included. The MIC determination was performed according to the CLSI (formerly NCCLS) reference protocol M27-A2 for yeasts (IC80 value) and M38-A for moulds (IC50 value). […] The values of MICs were determined after 24 and 48 h of static incubation at 35 °C. For T. mentagrophytes, the final MICs were determined after 72 and 120 h of incubation.
# Candida tropicalis 156 = test: In vitro antifungal broth microdilution test; format: cell-based; conditions: 35 °C, RPMI 1640 pH 7.0, CLSI M27-A2 (IC80 value); for MIC: Candida tropicalis, 156
# [2] = system: Aspergillus fumigatus 231; test: In vitro antifungal broth microdilution test; format: cell-based; conditions: 35 °C, RPMI 1640 pH 7.0, CLSI M38-A (IC50 value); for MIC: Aspergillus fumigatus, 231
# Candida krusei ATCC 6258 = test: In vitro antifungal broth microdilution test; format: cell-based; conditions: 35 °C, RPMI 1640 pH 7.0, CLSI M27-A2 (IC80 value); for MIC: Pichia kudriavzevii, ATCC6258
# [3] = system: photosynthetic electron transport (PET) in spinach chloroplasts; test: Inhibition of photosynthetic electron transport (PET) in spinach chloroplasts, DCPIP photoreduction; format: biochemical, Spinacia oleracea L.; conditions: DCPIP as electron acceptor, phosphate buffer pH 7.2, read-out: PET reduction IC50
# Experimental: Chloroplasts were prepared from spinach (Spinacia oleracea L.) according to Masarovicova and Kralova. The inhibition of photosynthetic electron transport (PET) in spinach chloroplasts was determined spectrophotometrically (Genesys 6, Thermo Scientific, USA) using an artificial electron acceptor 2,6-dichlorophenol-indophenol (DCIPP) according to Kralova et al. and the rate of photosynthetic electron transport was monitored as a photoreduction of DCPIP. The measurements were carried out in phosphate buffer (0.02 mol/L, pH 7.2) containing sucrose (0.4 mol/L), MgCl2 (0.005 mol/L) and NaCl (0.015 mol/L). The chlorophyll content was 30 mg/L in these experiments and the samples were irradiated (~100 W/m^2) from 10 cm distance with a halogen lamp (250 W) using a 4 cm water filter to prevent warming of the samples (suspension temperature 22 °C). The studied compounds were dissolved in DMSO due to their limited water solubility. […] The inhibitory efficiency of the studied compounds was expressed by IC50 values, i.e., by molar concentration of the compounds causing 50% decrease in the oxygen evolution rate relative to the untreated control.
# Candida glabrata 20/I = test: In vitro antifungal broth microdilution test; format: cell-based; conditions: 35 °C, RPMI 1640 pH 7.0, CLSI M27-A2 (IC80 value); for MIC: Nakaseomyces glabratus, 20/I
# [4] = Lipophilicity determination by RP-HPLC (capacity factor k / log k); format: physicochemical; conditions: C18 column, isocratic MeOH 55.0% / H2O 45.0%
# Source text: A Waters Alliance 2695 XE HPLC separation module and Waters Photodiode Array Detector 2996 (Waters Corp., Milford, MA, USA) were used. A Symmetry® C18 5 μm, 4.6 × 250 mm, Part No. WAT054275, (Waters Corp., Milford, MA, USA) chromatographic column was used. The HPLC separation process was monitored by Millennium32® Chromatography Manager Software, Waters 2004 (Waters Corp., Milford, MA, USA). A mixture of MeOH p.a. (55.0%) and H2O-HPLC– Mili-Q Grade (45.0%) was used as a mobile phase. The total flow of the column was 0.9 mL/min, injection 30 μL, column temperature 30 °C and sample temperature 10 °C. The detection wavelength 210 nm was chosen. The KI methanolic solution was used for the dead time (tD) determination. Retention times (tR) were measured in minutes.
# The capacity factors k were calculated using the Millennium32® Chromatography Manager Software according to formula k = (tR - tD)/tD, where tR is the retention time of the solute, whereas tD denotes the dead time obtained via an unretained analyte. Log k, calculated from the capacity factor k, is used as the lipophilicity index converted to log P scale.
# [5] = system: Candida albicans ATCC 44859; test: In vitro antifungal broth microdilution test; format: cell-based; conditions: 35 °C, RPMI 1640 pH 7.0, CLSI M27-A2 (IC80 value); for MIC: Candida albicans, ATCC44859
# Absidia corymbifera 272 = test: In vitro antifungal broth microdilution test; format: cell-based; conditions: 35 °C, RPMI 1640 pH 7.0, CLSI M38-A (IC50 value); for MIC: Lichtheimia corymbifera, 272
# [6] = system: Trichophyton mentagrophytes 445; test: In vitro antifungal broth microdilution test; format: cell-based
# [7] = Trichosporon beigelii, 1188, 24h, 35 °C, RPMI 1640 pH 7.0, CLSI M27-A2 (IC80 value), read-out: MIC TB
# [8] = Trichosporon beigelii, 1188, 48h, 35 °C, RPMI 1640 pH 7.0, CLSI M27-A2 (IC80 value), read-out: MIC TB
# [9] = Trichophyton mentagrophytes, 445, 120 h, pH 7
# [10] = Trichophyton mentagrophytes, 445, 72h, RPMI 1640 pH 7.0, CLSI M38-A (IC50 value)
Compound,IC50 [3] [µM],log k [4],"MIC [1, 7] [µM]","MIC [1, 8] [µM]",MIC (Candida tropicalis 156; 24h) [µM],MIC (Candida tropicalis 156; 48h) [µM],MIC ([2]; 24h) [µM],MIC ([2]; 48h) [µM],MIC (Candida krusei ATCC 6258; 24h) [µM],MIC (Candida krusei ATCC 6258; 48h) [µM],MIC (Candida glabrata 20/I; 24h) [µM],MIC (Candida glabrata 20/I; 48h) [µM],MIC ([5]; 24h) [µM],MIC ([5]; 48h) [µM],MIC (Absidia corymbifera 272; 24h) [µM],MIC (Absidia corymbifera 272; 48h) [µM],"MIC [6, 9] [µM]","MIC [6, 10] [µM]",also measured
8-Hydroxyquinoline-5-sulfonic acid isobutylamide [Compound 5],54.4,0.3373,,,,,,,,,,,,,,,,,"MIC TB ([1]; 24h, 35 °C, RPMI 1640 pH 7.0, CLSI M27-A2 (IC80 value)): 250 µM; MIC TB ([1]; 48h, 35 °C, RPMI 1640 pH 7.0, CLSI M27-A2 (IC80 value)): 500 µM; MIC CT (Candida tropicalis 156; 24h): 250 µM; MIC CT (Candida tropicalis 156; 48h): 250 µM; MIC AF ([2]; 24h): 250 µM; MIC AF ([2]; 48h): 250 µM; MIC CK (Candida krusei ATCC 6258; 24h): 250 µM; MIC CK (Candida krusei ATCC 6258; 48h): 250 µM; MIC CG (Candida glabrata 20/I; 24h): 125 µM; MIC CG (Candida glabrata 20/I; 48h): 250 µM; MIC CA ([5]; 24h): 125 µM; MIC CA ([5]; 48h): 250 µM; MIC AC (Absidia corymbifera 272; 24h): 125 µM; MIC AC (Absidia corymbifera 272; 48h): 125 µM; MIC TM ([6]; 72h, RPMI 1640 pH 7.0, CLSI M38-A (IC50 value)): 62.50 µM; MIC TM ([6]; 120h, RPMI 1640 pH 7.0, CLSI M38-A (IC50 value)): 125 µM"
"O=[N+]([O-])c1ccc(O)c2ncccc12 [Compound 1, 5-Nitroquinolin-8-ol]",78,0.5695,> 500,> 500,> 500,> 500,> 500,> 500,> 500,> 500,> 500,> 500,> 500,> 500,> 500,> 500,> 500,> 500,
"O=[N+]([O-])c1cc(S(=O)(=O)O)c2cccnc2c1O [Compound 2, 8-Hydroxy-7-nitroquinoline-5-sulfonic acid]",,0.1479,> 250,> 250,> 250,> 250,> 250,> 250,> 250,> 250,> 250,> 250,> 250,> 250,> 250,> 250,> 250,> 250,
"O=S(=O)(O)c1cc(Br)c(O)c2ncccc12 [Compound 3, 7-Bromo-8-hydroxyquinoline-5-sulfonic acid]",33.5,0.3786,,3.9,1.95,3.9,0.77,1.95,3.9,3.9,1.95,3.9,0.77,1.95,7.8,7.8,1.95,1.95,"MIC ([1]; Trichosporon beigelii, 1188, 24 h, pH 7, read-out: MIC TB): 3.9 µM"
"O=S(=O)(c1ccc(O)c2ncccc12)N1CCOCC1 [Compound 4, 5-(Morpholine-4-sulfonyl)quinolin-8-ol]",,0.3293,500,500,500,500,500,500,250,500,500,500,125,500,125,250,250,250,
"O=S(=O)(NCCc1ccccc1)c1ccc(O)c2ncccc12 [Compound 6, 8-Hydroxyquinoline-5-sulfonic acid (2-phenylethyl)amide]",304,0.3349,125,125,125,125,125,125,125,125,125,125,125,125,125,125,125,125,
"O=S(=O)(NCCCCc1ccccc1)c1ccc(O)c2ncccc12 [Compound 7, 8-Hydroxyquinoline-5-sulfonic acid (4-phenylbutyl)amide]",616,0.3902,> 125,> 125,> 125,> 125,> 125,> 125,> 125,> 125,> 125,> 125,> 125,> 125,> 125,> 125,> 125,> 125,
"CC(=O)Nc1ccc2cccc(OC(C)=O)c2n1 [Compound 8, 2-Acetylaminoquinolin-8-yl acetate]",306,0.3583,62.5,125,31.2,31.2,62.5,62.5,62.5,62.5,31.2,62.5,15.6,62.5,62.5,62.5,62.5,62.5,
"Oc1ccccc1C=Cc1ccc2c(Cl)cc(Cl)c(O)c2n1 [Compound 9, 5,7-Dichloro-2-[2-(2-hydroxyphenyl)vinyl]quinolin-8-ol]",,1.5854,,,,,,,,,,,,,,,,,
"OC(Cn1cncn1)(Cn1cncn1)c1ccc(F)cc1F [FLU, fluconazole, reference compound]",,,0.24,0.48,0.12,> 125,> 125,> 125,3.91,15.6,0.98,3.91,0.06,0.12,> 125,> 125,3.91,1.95,
